Experimental findings from patent publication US10100058B2, “Fused heterocyclic compounds as CaM kinase inhibitors” (Gilead Sciences, Inc., priority 2016, dated 2018) are described below.

The target of this assay is recombinant CaMKIIδ (Homo sapiens (Human), UniProt Q13557). The experiment in a line: CaMKIIδ biochemical assay (HTRF). Particulars: 10 pM CaMKIIδ, 110 nM calmodulin, 12 μM ATP, 1 hour; read-out: CAMKIID-HTRF-384V2 (IC50 - nM). As to the method:
CaMKIIδ Biochemical Assay
The biochemical activity of recombinant CaMKIIδ was measured by monitoring the phosphorylation of a target peptide using Homogenous Time Resolved Fluorescence (HTRF) technology from CisBio Bioassays.
(Time-resolved FRET reads energy transfer from a long-lived donor to a nearby acceptor.)
As usually defined, the IC50 is the concentration that gives 50% inhibition. Consider `CCN(CC)[C@@H](C)CNC(=O)c1cc(NC2CCOCC2)nc(-c2cnn3ccc(-c4cccs4)nc23)c1` [Example 222, (S)—N-(2-(diethylamino)propyl)-2-((tetrahydro-2H-pyran-4-yl)amino)-6-(5-(thiophen-2-yl)pyrazolo[1,5-a]pyrimidin-3-yl)isonicotinamide], for which the IC50 was 0.17 nM.
`CCN(CC)[C@@H](C)CNC(=O)c1cc(NCCN2CCOCC2)nc(-c2cnn3ccc(-c4cccs4)nc23)c1` [Example 223, (S)—N-(2-(diethylamino)propyl)-2-((2-morpholinoethyl)amino)-6-(5-(thiophen-2-yl)pyrazolo[1,5-a]pyrimidin-3-yl)isonicotinamide]: the IC50 was 0.14 nM.
Under `CCN(CC)[C@@H](C)CNC(=O)c1cc(NCCN2CC(F)(F)C2)nc(-c2cnn3ccc(-c4cccs4)nc23)c1` [Example 224, (S)—N-(2-(diethylamino)propyl)-2-((2-(3,3-difluoroazetidin-1-yl)ethyl)amino)-6-(5-(thiophen-2-yl)pyrazolo[1,5-a]pyrimidin-3-yl)isonicotinamide] stands 0.21 nM; under `CCN(CC)[C@@H](C)CNC(=O)c1cc(-c2cnn3ccc(-c4cccs4)nc23)nc(N2CC(C)(O)C2)c1` [Example 226, (S)—N-(2-(diethylamino)propyl)-2-(3-hydroxy-3-methylazetidin-1-yl)-6-(5-(thiophen-2-yl)pyrazolo[1,5-a]pyrimidin-3-yl)isonicotinamide], 0.1 nM.
On to `CCN(CC)[C@@H](C)CNC(=O)c1cc(-c2cnn3ccc(-c4cccs4)nc23)nc(N2CC(C)(OC)C2)c1` [Example 227, (S)—N-(2-(diethylamino)propyl)-2-(3-methoxy-3-methylazetidin-1-yl)-6-(5-(thiophen-2-yl)pyrazolo[1,5-a]pyrimidin-3-yl)isonicotinamide], for which the IC50 came to 0.07 nM.
Under `CCN(CC)[C@@H](C)CNC(=O)c1cc(-c2cnn3ccc(-c4cccs4)nc23)nc(N2CC(F)(F)C(F)(F)C2)c1` [Example 230, (S)—N-(2-(diethylamino)propyl)-2-(3,3,4,4-tetrafluoropyrrolidin-1-yl)-6-(5-(thiophen-2-yl)pyrazolo[1,5-a]pyrimidin-3-yl)isonicotinamide] stands 1.8 nM; under `CCN(CC)[C@@H](C)CNC(=O)c1cc(Nc2cn[nH]c2)nc(-c2cnn3ccc(-c4cccs4)nc23)c1` [Example 231, (S)-2-((1H-pyrazol-4-yl)amino)-N-(2-(diethylamino)propyl)-6-(5-(thiophen-2-yl)pyrazolo[1,5-a]pyrimidin-3-yl)isonicotinamide], 0.06 nM; under `CCN(CC)[C@@H](C)CNC(=O)c1cc(-c2cnn3ccc(-c4cccs4)nc23)nc(N2CCC(F)(F)C2)c1` [Example 232, (S)—N-(2-(diethylamino)propyl)-2-(3,3-difluoropyrrolidin-1-yl)-6-(5-(thiophen-2-yl)pyrazolo[1,5-a]pyrimidin-3-yl)isonicotinamide], 0.28 nM.
Under `CCN(CC)[C@@H](C)CNC(=O)c1cc(-c2cnn3ccc(-c4cccs4)nc23)nc(N2CCC3(COC3)C2)c1` [Example 233, (S)—N-(2-(diethylamino)propyl)-2-(2-oxa-6-azaspiro[3.4]octan-6-yl)-6-(5-(thiophen-2-yl)pyrazolo[1,5-a]pyrimidin-3-yl)isonicotinamide] stands 0.18 nM.
On to `CCN(CC)[C@@H](C)CNC(=O)c1cc(-c2cnn3ccc(-c4cccs4)nc23)nc(N2CCC23COC3)c1` [Example 234, (S)—N-(2-(diethylamino)propyl)-2-(6-oxa-1-azaspiro[3.3]heptan-1-yl)-6-(5-(thiophen-2-yl)pyrazolo[1,5-a]pyrimidin-3-yl)isonicotinamide], for which the IC50 came to 1.28 nM.
In the case of `CCN(CC)[C@@H](C)CNC(=O)c1cc(N[C@H](C)C(N)=O)nc(-c2cnn3ccc(-c4cccs4)nc23)c1` [Example 235, 2-(((R)-1-amino-1-oxopropan-2-yl)amino)-N—((S)-2-(diethylamino)propyl)-6-(5-(thiophen-2-yl)pyrazolo[1,5-a]pyrimidin-3-yl)isonicotinamide], the IC50 came out at 1.83 nM.
The same measure for `CCN(CC)[C@@H](C)CNC(=O)c1cc(N[C@@H](C)C(N)=O)nc(-c2cnn3ccc(-c4cccs4)nc23)c1` [Example 236, 2-(((S)-1-amino-1-oxopropan-2-yl)amino)-N—((S)-2-(diethylamino)propyl)-6-(5-(thiophen-2-yl)pyrazolo[1,5-a]pyrimidin-3-yl)isonicotinamide]: 0.83 nM; for `CCN(CC)[C@@H](C)CNC(=O)c1cc(NCc2ncc[nH]2)nc(-c2cnn3ccc(-c4cccs4)nc23)c1` [Example 237, (S)-2-(((1H-imidazol-2-yl)methyl)amino)-N-(2-(diethylamino)propyl)-6-(5-(thiophen-2-yl)pyrazolo[1,5-a]pyrimidin-3-yl)isonicotinamide]: 0.13 nM.
Under `CCN(CC)[C@@H](C)CNC(=O)c1cc(NCC(N)=O)nc(-c2cnn3ccc(-c4cccs4)nc23)c1` [Example 238, (S)-2-((2-amino-2-oxoethyl)amino)-N-(2-(diethylamino)propyl)-6-(5-(thiophen-2-yl)pyrazolo[1,5-a]pyrimidin-3-yl)isonicotinamide] stands 0.28 nM.
Consider `CCN(CC)[C@@H](C)CNC(=O)c1cc(N[C@H](C)C(=O)NC)nc(-c2cnn3ccc(-c4cccs4)nc23)c1` [Example 239, N—((S)-2-(diethylamino)propyl)-2-(((R)-1-(methylamino)-1-oxopropan-2-yl)amino)-6-(5-(thiophen-2-yl)pyrazolo[1,5-a]pyrimidin-3-yl)isonicotinamide], for which the IC50 was 3.66 nM.
Turning to `CCN(CC)[C@@H](C)CNC(=O)c1cc(N[C@@H](C)C(=O)NC)nc(-c2cnn3ccc(-c4cccs4)nc23)c1` [Example 240, N—((S)-2-(diethylamino)propyl)-2-(((S)-1-(methylamino)-1-oxopropan-2-yl)amino)-6-(5-(thiophen-2-yl)pyrazolo[1,5-a]pyrimidin-3-yl)isonicotinamide], the IC50 is 1.07 nM.
With `CCN(CC)[C@@H](C)CNC(=O)c1cc(Nc2ncc[nH]2)nc(-c2cnn3ccc(-c4cccs4)nc23)c1` [Example 241, (S)-2-((1H-imidazol-2-yl)amino)-N-(2-(diethylamino)propyl)-6-(5-(thiophen-2-yl)pyrazolo[1,5-a]pyrimidin-3-yl)isonicotinamide], the IC50 amounted to 1.87 nM.
The same measure for `CCN(CC)[C@@H](C)CNC(=O)c1cc(NCCS(N)(=O)=O)nc(-c2cnn3ccc(-c4cccs4)nc23)c1` [Example 242, (S)—N-(2-(diethylamino)propyl)-2-((2-sulfamoylethyl)amino)-6-(5-(thiophen-2-yl)pyrazolo[1,5-a]pyrimidin-3-yl)isonicotinamide]: 0.07 nM; for `CCN(CC)[C@@H](C)CNC(=O)c1cc(-c2cnn3ccc(-c4cccs4)nc23)nc(N2C[C@H](O)[C@@H](O)C2)c1` [Example 243, N—((S)-2-(diethylamino)propyl)-2-((3S,4S)-3,4-dihydroxypyrrolidin-1-yl)-6-(5-(thiophen-2-yl)pyrazolo[1,5-a]pyrimidin-3-yl)isonicotinamide]: 0.14 nM.
The same measure for `CCN(CC)[C@@H](C)CNC(=O)c1cc(-c2cnn3ccc(-c4cccs4)nc23)nc(N2CC(CO)(CO)C2)c1` [Example 244, (S)-2-(3,3-bis(hydroxymethyl)azetidin-1-yl)-N-(2-(diethylamino)propyl)-6-(5-(thiophen-2-yl)pyrazolo[1,5-a]pyrimidin-3-yl)isonicotinamide]: 0.16 nM.
Under `CCN[C@@H](C)CNC(=O)c1cc(-c2cnn3ccc(-c4cccs4)nc23)nc(N2CC(C)(O)C2)c1` [Example 245, (S)—N-(2-(ethylamino)propyl)-2-(3-hydroxy-3-methylazetidin-1-yl)-6-(5-(thiophen-2-yl)pyrazolo[1,5-a]pyrimidin-3-yl)isonicotinamide] stands 9.25 nM.
Regarding `CCN(CC)[C@@H](C)CNC(=O)c1cc(NCC(=O)NC)nc(-c2cnn3ccc(-c4cccs4)nc23)c1` [Example 246, (S)—N-(2-(diethylamino)propyl)-2-((2-(methylamino)-2-oxoethyl)amino)-6-(5-(thiophen-2-yl)pyrazolo[1,5-a]pyrimidin-3-yl)isonicotinamide], the IC50 came out at 0.17 nM.
The same measure for `CCN(CC)[C@@H](C)CNC(=O)c1cc(-c2cnn3ccc(-c4cccs4)nc23)nc(N2CCC(OC)CC2)c1` [Example 247, (S)—N-(2-(diethylamino)propyl)-2-(4-methoxypiperidin-1-yl)-6-(5-(thiophen-2-yl)pyrazolo[1,5-a]pyrimidin-3-yl)isonicotinamide]: 0.46 nM; for `CCN(CC)[C@@H](C)CNC(=O)c1cc(-c2cnn3ccc(-c4cccs4)nc23)nc(N2CC(C)(N(C)C)C2)c1` [Example 248, (S)—N-(2-(diethylamino)propyl)-2-(3-(dimethylamino)-3-methylazetidin-1-yl)-6-(5-(thiophen-2-yl)pyrazolo[1,5-a]pyrimidin-3-yl)isonicotinamide]: 0.21 nM.
For `CCN(CC)[C@@H](C)CNC(=O)c1cc(-c2cnn3ccc(-c4cccs4)nc23)nc(N2CC3(CCC3(F)F)C2)c1` [Example 249, (S)—N-(2-(diethylamino)propyl)-2-(5,5-difluoro-2-azaspiro[3.3]heptan 2 yl)-6-(5-(thiophen-2-yl)pyrazolo[1,5-a]pyrimidin-3-yl)isonicotinamide], the IC50 turned out to be 0.2 nM.
Under `CCN(CC)[C@@H](C)CNC(=O)c1cc(-c2cnn3ccc(-c4cccs4)nc23)nc(N2CCC23CCC3)c1` [Example 250, (S)—N-(2-(diethylamino)propyl)-2-(1-azaspiro[3.3]heptan-1-yl)-6-(5-(thiophen-2-yl)pyrazolo[1,5-a]pyrimidin-3-yl)isonicotinamide] stands 1.61 nM; under `CCN(CC)[C@@H](C)CNC(=O)c1cc(-c2cnn3ccc(-c4cccs4)nc23)nc(N2CCC[C@@H]2C(F)(F)F)c1` [Example 251, N—((S)-2-(diethylamino)propyl)-2-(5-(thiophen-2-yl)pyrazolo[1,5-a]pyrimidin-3-yl)-6-((R)-2-(trifluoromethyl)pyrrolidin-1-yl)isonicotinamide], 2.05 nM.
